From US20060115458A1, “Material for repairing biological tissues, product for repairing biological tissues, and method of manufacturing material for repairing biological tissues” (OLYMPUS CORPORATION, priority 2004, published 2006)

Tests used:
[1] = system: normal human osteoblast NHOst; experiment: Proliferation rate of osteoblasts cultured with metal salts (TetraColor ONE); type: cell-based; settings: as concentration became higher; 2 weeks culture; control group = 100%; FIG. 1
Description: (§1) As a medium, α-MEM medium containing β-sodium glycerophosphate and fetal calf serum was used.
(§2) The cell culturing method was such that about 1×10^4 osteoblasts were seeded in each well in a collagen type I coated 24 well microplate. Then after 24 hours the product was replaced with 1 ml of medium containing a prescribed concentration of metal salts, after which it was further replaced with a medium containing the same concentration of metal salts three times per week, and the culturing was performed for 2 weeks.
The proliferation rate was measured as follows. 1 ml of medium containing 20 μl/ml of living cell measuring reagent, TetraColor ONE (Seikagaku Corporation) was added into each well. After 2 hours of culturing, the absorbency at 450 nm (control wavelength was 600 nm) was measured. The proliferation rate of the respective experimental groups was obtained assuming that the absorbancy of the control group was 100%.

[2] = system: normal human osteoblast NHOst; experiment: Differentiation rate of osteoblasts cultured with metal salts (calcium content per well); type: cell-based; settings: as concentration became higher; 2 weeks culture; calcium content of control group = 100%; FIG. 2
Description: as §1, §2
The differentiation rate was measured as follows. 1 ml of 0.1N hydrochloric acid was added into each well and left at room temperature for 15 hours to obtain the hydrochloric acid extract of each well. Using calcium C-Test Wako (Wako Pure Chemical Industries, Ltd.), 10 μl of hydrochloric acid extract was added with 1 ml of 0.88 M monoethanolamine buffer (pH 11.0), then 100 μl of 0.63 mM ortho-cresolphthalein complexone and 100 μl of 69 mM 8-quinolinol. After 15 minutes of reaction at room temperature, the absorbancy at 570 nm was measured to determine the calcium content per well. The differentiation rate of the respective experimental groups was obtained assuming that the calcium content of the control group was 100%.

[Cl][Nb]([Cl])([Cl])([Cl])[Cl] [niobium pentachloride]
proliferation rate of osteoblasts [1]: increased the proliferation rate
differentiation rate of osteoblasts [2]: increased the differentiation rate
